These results are taken from patent US12630532B2, “Indole-substituted quinolines and their combination with Plk1 inhibitors for the treatment of cancer” (UNIVERSITY OF KENTUCKY RESEARCH FOUNDATION, priority 2021, dated 2026).

This assay concerns LS174T cells. Briefly: Cell proliferation inhibition assay (5 days, cell counting). Format: cell-based. The following applies: for inhibition at 0.062 µM / inhibition at 0.125 µM / inhibition at 0.25 µM / inhibition at 0.5 µM / IC50 / inhibition at 3 µM / inhibition at 1 µM / inhibition at 0.3 µM: Homo sapiens, LS174T; for inhibition at 0.062 µM / inhibition at 0.125 µM / inhibition at 0.25 µM / inhibition at 0.5 µM: 120 h; for inhibition at 0.062 µM: 62 nM; for inhibition at 0.125 µM: 125 nM; for IC50: dose response studies, read-out: IC50 values in cell proliferation assays; for inhibition at 3 µM: read-out: Inhibition % on LS174T cells Proliferation 3 uM Inhib. %; for inhibition at 1 µM: read-out: Inhibition % on LS174T cells Proliferation 1 uM Inhib. %; for inhibition at 0.3 µM: read-out: Inhibition % on LS174T cells Proliferation 0.3 uM Inhib. %. As to the method:
Cell proliferation inhibition assays were done following a previous report (32). Cancer cells were seeded into 24-well plates at a density of 20,000 cells per well in 1 mL of culture medium and were cultured overnight at 37° C. Compounds and the vehicle control (DMSO) were added to the cells. After 5 days, the medium was removed, and 100 μL of trypsin was added. The cells were resuspended in phosphate-buffered saline (PBS) and were counted by Vi-CELL XR 2.03 (Beckman Coulter, Inc. USA). The ratio R of the number of viable cells in the compound treatment group to the number of viable cells in DMSO treatment group was taken as relative growth, and the percentage growth inhibition was calculated as (1−R)*100.

For the compound “3-(1-Methyl-1H-indol-3-yl)-7-(4-methylpiperazin-1-yl)quinolin-2-amine [ISQ-3]”, the “Inhibition % on LS174T cells Proliferation 250 nM” value (250 nM, 5 days) is 27 ± 14%. For the same compound, the “Inhibition % on LS174T cells Proliferation 0.3 uM Inhib. %” value (0.3 uM) came out at 73.9%. The “Inhibition % on LS174T cells Proliferation 500 nM” value (500 nM, 5 days) was found to be 89 ± 2.1%. Moreover, for the setting “1 uM”, the “Inhibition % on LS174T cells Proliferation 1 uM Inhib. %” value came out at 95.5%. Also, the “Inhibition % on LS174T cells Proliferation 3 uM Inhib. %” value (3 uM) is on record as 99.7%.

Where the note is “5 days”, `Cn1cc(-c2cc3ccc(N4CCCCC4)cc3nc2N)c2ccccc21` [ISQ-2, 3-(1-Methyl-1H-indol-3-yl)-7-(piperidin-1-yl)quinolin-2-amine] came in with an inhibition at 0.062 µM of 8.2 ± 5.6% and an inhibition at 0.125 µM of 28 ± 4.6%. The compound further yielded an inhibition at 0.25 µM (250 nM, 5 days) of 55 ± 0.5%. Besides, the inhibition at 0.5 µM (500 nM, 5 days) was 97 ± 0.4%.

Compound `CC(C)C1CCN(c2ccc3cc(-c4cn(C)c5ccccc45)c(N)nc3c2)CC1` [ISQ-4, 7-(4-Isopropylpiperidin-1-yl)-3-(1-methyl-1H-indol-3-yl)quinolin-2-amine] had an inhibition at 0.5 µM (500 nM, 5 days) of 36 ± 0.9%.

`Cn1cc(-c2cc3ccc(N4CCC(Cc5ccccc5)CC4)cc3nc2N)c2ccccc21` [ISQ-5, 7-(4-Benzylpiperidin-1-yl)-3-(1-methyl-1H-indol-3-yl)quinolin-2-amine] displayed an inhibition at 0.5 µM (500 nM, 5 days) of 21 ± 3.9%.

For the compound `Cn1cc(-c2cc3ccc(N4CCC(c5ccccc5)CC4)cc3nc2N)c2ccccc21` [ISQ-6, 3-(1-Methyl-1H-indol-3-yl)-7-(4-phenylpiperidin-1-yl)quinolin-2-amine], the inhibition at 0.5 µM (500 nM, 5 days) amounted to 56 ± 13.1%.

Regarding `Cn1cc(-c2cc3ccc(N4CCC(CO)CC4)cc3nc2N)c2ccccc21` [ISQ-8, (1-(2-Amino-3-(1-methyl-1H-indol-3-yl)quinolin-7-yl)piperidin-4-yl)methanol], the IC50 was approximately 100 nM. Also, where the note is “500 nM”, the “percentage inhibition of LS174T cell proliferation at 500 nM, compared among ISQs (FIG. 2B)” value (“percentage inhibition” below) was “comparable to the N,N-dimethylamino group in ISQ-1”. In addition, where the note is “5 days”, the inhibition at 0.062 µM turned out to be 20 ± 9% and the inhibition at 0.125 µM was 59 ± 2.7%. The compound further displayed an inhibition at 0.25 µM (250 nM, 5 days) of 97 ± 0.2%. In addition, the inhibition at 0.5 µM (500 nM, 5 days) came out at 98 ± 0.6%.

On to `COCC1CCN(c2ccc3cc(-c4cn(C)c5ccccc45)c(N)nc3c2)CC1` [ISQ-9, 7-(4-(Methoxymethyl)piperidin-1-yl)-3-(1-methyl-1H-indol-3-yl)quinolin-2-amine], for which the IC50 was approximately 100 nM. The “percentage inhibition” value (500 nM) is on record as “comparable to the N,N-dimethylamino group in ISQ-1”. Where the note is “5 days”, this compound displayed an inhibition at 0.062 µM of 12 ± 1.9% and an inhibition at 0.125 µM of 55 ± 2.3%. Moreover, under “250 nM, 5 days”, the inhibition at 0.25 µM was 98%. For the setting “500 nM, 5 days”, this compound registered an inhibition at 0.5 µM of 99 ± 0.1%.

With `Cn1cc(-c2cc3ccc(N4CCC(c5ccncc5)CC4)cc3nc2N)c2ccccc21` [ISQ-10, 3-(1-Methyl-1H-indol-3-yl)-7-(4-(pyridin-4-yl)piperidin-1-yl)quinolin-2-amine], the IC50 was approximately 100 nM. Further, for the setting “500 nM”, the “percentage inhibition” value is “comparable to the N,N-dimethylamino group in ISQ-1”. Where the note is “5 days”, this compound showed an inhibition at 0.062 µM of 21 ± 5.7% and an inhibition at 0.125 µM of 84 ± 2.7%. Further, the inhibition at 0.25 µM (250 nM, 5 days) came to 99 ± 13.1%. The compound also yielded an inhibition at 0.5 µM (500 nM, 5 days) of 99 ± 0.1%.

Turning to `CN(C)c1ccc2cc(-c3nc4ccc(F)cc4s3)c(N)nc2c1` [LMK-5-52], the inhibition at 3 µM is 97%.

Regarding `CN(C)c1ccc2cc(-c3nc4ccc(Cl)cc4s3)c(N)nc2c1` [LMK-5-55], the inhibition at 3 µM came out at 97.6%.

With `CN(C)c1ccc2cc(-c3nc4cc(C(C)(C)C)ccc4o3)c(N)nc2c1` [LMK-5-60], the inhibition at 3 µM is 91.5%.

On to `COc1ccc2nc(-c3cc4ccc(N(C)C)cc4nc3N)sc2c1` [LMK-5-62], for which the inhibition at 3 µM came out at 85.5%.

Consider `CN(C)c1ccc2cc(-c3nc(-c4ccc(Br)cc4)cs3)c(N)nc2c1` [LMK-5-66], for which the inhibition at 1 µM worked out at 45% and the inhibition at 3 µM came to 98.9%.

As for `CN(C)c1ccc2cc(-c3nc(-c4ccccc4)cs3)c(N)nc2c1` [LMK-5-67], the inhibition at 1 µM amounted to 96.9% and the inhibition at 3 µM worked out at 99.8%.

On to `COc1ccc(-c2csc(-c3cc4ccc(N(C)C)cc4nc3N)n2)cc1` [LMK-5-68], for which the inhibition at 1 µM is 24.2% and the inhibition at 3 µM is 94.3%.

In the case of `Nc1nc2cc(N3CCOCC3)ccc2cc1-c1cc(Cl)cc(Cl)c1` [LMK-5-276], the inhibition at 1 µM came out at 35% and the inhibition at 3 µM worked out at 65.2%.

As for `CN1CCN(c2ccc3cc(-c4cc(Cl)cc(Cl)c4)c(N)nc3c2)CC1` [LMK-5-278], the inhibition at 1 µM was found to be 27.9% and the inhibition at 3 µM was found to be 87.7%.

Take `Nc1nc2cc(N3CCCCC3)ccc2cc1-c1cc(Cl)cc(Cl)c1` [LMK-5-279]: the inhibition at 1 µM is 46.6% and the inhibition at 3 µM was 87.6%.

Turning to `Nc1nc2cc(N3CCCC3)ccc2cc1-c1cc(Cl)cc(Cl)c1` [LMK-5-280], the inhibition at 0.3 µM is 31%, the inhibition at 1 µM came to 93.1% and the inhibition at 3 µM was determined as 97.7%.

Regarding `Cn1cc(-c2cc3ccc(N4CCOCC4)cc3nc2N)c2ccccc21` [LMK-5-281], the inhibition at 0.3 µM was 30.9%, the inhibition at 1 µM was 93.7% and the inhibition at 3 µM was 98.1%.

As to `CN1CCN(c2ccc3cc(-c4cn(C)c5ccccc45)c(N)nc3c2)CC1` [LMK-5-282], the inhibition at 1 µM turned out to be 25.2% and the inhibition at 3 µM was 83.7%.

For the compound `Nc1nc2cc(N3CCOCC3)ccc2cc1-c1ccccc1F` [LMK-5-284], the inhibition at 1 µM came to 20.6% and the inhibition at 3 µM came to 85.6%.

Take `Nc1nc2cc(N3CCCCC3)ccc2cc1-c1ccccc1F` [LMK-5-286]: the inhibition at 0.3 µM is 21.9%, the inhibition at 1 µM was found to be 96% and the inhibition at 3 µM was 97%.

For the setting “500 nM, 5 days”, `CC(C)C1CCN(c2ccc3cc(-c4ccccc4F)c(N)nc3c2)CC1` [LMK-6-84] yielded an inhibition at 0.5 µM of 79 ± 5.7%.

For the compound `Nc1nc2cc(N3CCC(c4ccccc4)CC3)ccc2cc1-c1ccccc1F` [LMK-6-89], for the setting “5 days”, the inhibition at 0.062 µM was found to be 2 ± 3% and the inhibition at 0.125 µM was 20 ± 0.6%. Also, under “250 nM, 5 days”, the inhibition at 0.25 µM amounted to 23 ± 3.8%. Further, the inhibition at 0.5 µM (500 nM, 5 days) was 89 ± 1%.

In turn, `Nc1nc2cc(N3CCC(Cc4ccccc4)CC3)ccc2cc1-c1ccccc1F` [LMK-6-91] came in with an inhibition at 0.5 µM (500 nM, 5 days) of 14 ± 1.2%.

For `N#CC1CCN(c2ccc3cc(-c4ccccc4F)c(N)nc3c2)CC1` [LMK-6-99], under “5 days”, the inhibition at 0.062 µM stood at 2 ± 0.2% and the inhibition at 0.125 µM came to 9 ± 2.2%. In addition, the inhibition at 0.25 µM (250 nM, 5 days) came out at 17 ± 0.1%. The inhibition at 0.5 µM (500 nM, 5 days) worked out at 64 ± 3.5%.

`COCC1CCN(c2ccc3cc(-c4ccccc4F)c(N)nc3c2)CC1` [LMK-6-109]: where the note is “5 days”, the inhibition at 0.062 µM is 16 ± 8.4% and the inhibition at 0.125 µM was determined as 29 ± 0.3%. The compound also displayed an inhibition at 0.25 µM (250 nM, 5 days) of 70 ± 8.8%. Moreover, under “500 nM, 5 days”, the inhibition at 0.5 µM was found to be 94 ± 0.1%.

For the setting “5 days”, `Nc1nc2cc(N3CCC(CO)CC3)ccc2cc1-c1ccccc1F` [LMK-6-117] registered an inhibition at 0.062 µM of 12 ± 1.4% and an inhibition at 0.125 µM of 12 ± 0.7%. The inhibition at 0.25 µM (250 nM, 5 days) was found to be 32 ± 10.5%. Under “500 nM, 5 days”, the inhibition at 0.5 µM was 59 ± 0.3%.

Consider `CN(C)c1ccc2cc(-c3ccc(Cl)c(Cl)c3)c(N)nc2c1` [VMS-4-57], for which the inhibition at 0.3 µM is 26.7%, the inhibition at 1 µM stood at 57.8% and the inhibition at 3 µM was 74.3%.

With `CN(C)c1ccc2cc(-c3cc(Cl)cc(Cl)c3)c(N)nc2c1` [VMS-4-103], the inhibition at 3 µM is 86.4%.

For `CN(C)c1ccc2cc(-c3nc4ccccc4s3)c(N)nc2c1` [VMS-7-1], the inhibition at 3 µM was determined as 95.3%.

On to `CN(C)c1ccc2cc(-c3csc4ccccc34)c(N)nc2c1` [VMS-7-3], for which the inhibition at 3 µM was determined as 96.7%.

On to `CN(C)c1ccc2cc(-c3coc4ccccc34)c(N)nc2c1` [VMS-7-7], for which the inhibition at 0.3 µM was determined as 87.2%, the inhibition at 1 µM is 97.8% and the inhibition at 3 µM stood at 96.8%.

On to `COc1ccc2c(c1)c(-c1cc3ccc(N(C)C)cc3nc1N)cn2C` [VMS-7-29], for which the inhibition at 3 µM was 99.3%.

As to `CNc1ccc2cc(-c3cc(Cl)cc(Cl)c3)c(N)nc2c1` [VMS-8-65], the inhibition at 3 µM was 97.2%.

As for `CNc1ccc2cc(-c3cn(C)c4ccccc34)c(N)nc2c1` [VMS-8-67], the inhibition at 3 µM was determined as 96.9%.
